Experimental data taken from patent US20040219103A1, “Methods useful for the diagnosis, imaging and treatment of tumors” (priority 2003, published 2004).

Legend:
JJ5 breast cancer cells [1] = test: Growth inhibition assay against JJ5 breast cancer cells; assay type: cell-based, human; settings: 4 days culture
Procedure: Growth medium was added and the cells were cultured at 37° C./5% CO^2 for 4 days. The cells were then recovered by trypsinization and counted in a hemocytometer. Control dishes contained cells cultured in growth medium containing ^111In-DTPA or growth medium alone.

JJ5 breast cancer cells [2] = test: Cytotoxicity (colony-forming) assay against JJ5 breast cancer cells; assay type: cell-based, human; settings: 14 days
Procedure: The number of cells seeded was varied from 3×10^4 to 3×10^6 cells to obtain approximately 400 viable colonies/dish taking into account the plating efficiency and the expected level of cytotoxicity. Control dishes contained JJ5 breast cancer cells which were incubated with normal saline. Growth medium was added and the cells were cultured at 37° C./5% CO^2 for 14 days. The growth medium was removed and the colonies were stained with methylene blue (1% in a 1:1 mixture of ethanol and water) then washed twice. The number of colonies per dish was counted using a manual colony counter (Manostat Corp). The plating efficiency was calculated by dividing the number of colonies observed by the number of cells seeded in each dish.

[3] = test system: JJ5 Breast Cancer cells (EGFR); test: Binding of EGF-^111In-labeled transferrin compound to breast cancer cells (radioligand binding, kinetics, retention); parameters: species or system human
Procedure: For the normal breast cell line HBL-100, 8000 EGFR/cell has been reported. The expression of EGFR in breast cancer cell lines has a reported range of 800 EGFR/cell for MCF-7 cells to 10^6 EGFR/cell for MDA-MB-468 cells. […] Utilizing the Auger electron emitter ^111In was used in the initial experiments to illustrate the utility of the invention using EGF-^111In-labeled transferrin compounds. The EGF-^111In-labeled transferrin (0.25-80 ng) was incubated with 1.5×10^6 cells/dish JJ5 Breast Cancer (prepared from BCBM JJ5) cells in 1 mL of 0.1% human serum albumin in 35 mm multiwell culture dishes at 37° C. for 30 minutes. The cells were transferred to a centrifuge tube and centrifuged. The cell pellet was separated from the supernatant and counted in a g-scintillation counter to determine bound (B) and free (F) radioactivity. Non-specific binding was determined by conducting the assay in 100 nM hEGF. […] Internalized fraction was measured by determining the proportion of radioactivity which could not be displaced from the cell surface by 100 nM hEGF. Cell-associated binding (surface-binding and intracellular accumulation) was expressed as a percentage of medium radioactivity bound per mg of cell study protein.

With `[In+3].[O-]c1cccc2cccnc12.[O-]c1cccc2cccnc12.[O-]c1cccc2cccnc12` [^111In-oxine, reference compound] the “growth inhibition of the JJ5 cells compared to the medium control” value (JJ5 breast cancer cells [1]; 3.5 pCi/cell) was 91% and the cell killing (JJ5 breast cancer cells [2]; <6 pCi/cell) was “greater than 99%”.

With “EGF-^111In-labeled transferrin compound: human EGF linked via PEG3400-biotin or peptide linker-biotin to streptavidin-transferrin, transferrin labeled with ^111In” the “internalization by cancer cells (in words)” value ([3]; JJ5 cells) was “rapidly internalized”, the “number of binding sites” value ([3]; JJ5 cells) was 2.7×10^6 and the “binding by the breast cancer cells (kinetics, in words)” value ([3]; JJ5 cells, 37° C.) was “rapidly bound”. For the same molecule, the “time retained by the breast cancer cells” value ([3]; JJ5 cells, 37° C.) was “at least 24 hours”, the “affinity constant for binding to JJ5 cells” value ([3]; JJ5 cells, 37° C., 30 minutes) was 8e+08 L/mol and the “^111In radioactivity lost from the cells in vitro” value ([3]; over a 24 hour period at 37° C.) was under 8%. The “growth inhibition of the JJ5 cells compared to the medium control” value (JJ5 breast cancer cells [1]; 3.4 pCi/cell) was 83% and the “reduction in cell survival for JJ5 cells” value (JJ5 breast cancer cells [2]; 8 pCi/cell) was 99%.
